Results on 13 compounds are retold here after ChEMBL document CHEMBL1129952, “Structure-based design of substituted diphenyl sulfones and sulfoxides as lipophilic inhibitors of thymidylate synthase” (J Med Chem, 1997).

Where “and” joins values, the source holds several entries; their conditions need not be identical. Identical values can stand only once. A value given as a limit tells only on which side of the number the result lay.

Broadly, the IC50 is the concentration that gives 50% inhibition. As a reminder, the Ki is the dissociation constant of the complex between target and ligand, obtained from inhibition or displacement.

In one experiment the test system is GC3/MTK-. Nature of the experiment: Inhibitory activity against GC3/M TK- human adreno carcinoma cell lines.
The next experiment deals with L1210. Nature of the experiment: Inhibitory activity against murine L1210 leukemic cell lines. The following applies: Mus musculus.
Another experiment relates to CCRF-CEM. Nature of the experiment: Inhibitory activity against human CCRF-CEM leukemic cell lines.
For experiment [1], the target named is T1, Thymidylate synthase (Homo sapiens, UniProt P04818).
Description: Binding affinity against recombinant human thymidylate synthase
Experiment [2] deals with T1, Thymidylate synthase. The source holds these as a separate data set.
Description: Binding affinity against recombinant thymidylate synthase in Escherichia coli

T1 sequence (P04818 whole entry): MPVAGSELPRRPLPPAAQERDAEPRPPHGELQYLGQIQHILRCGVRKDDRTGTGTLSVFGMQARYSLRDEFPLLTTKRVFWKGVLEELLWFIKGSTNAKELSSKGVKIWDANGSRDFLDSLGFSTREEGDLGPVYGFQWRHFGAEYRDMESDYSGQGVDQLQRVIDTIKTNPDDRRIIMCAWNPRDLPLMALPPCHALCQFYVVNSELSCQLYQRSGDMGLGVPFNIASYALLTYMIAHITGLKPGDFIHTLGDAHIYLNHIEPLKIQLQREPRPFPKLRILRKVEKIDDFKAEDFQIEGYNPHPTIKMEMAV

`C#CCN(Cc1ccc2nc(C)nc(O)c2c1)c1ccc([S+]([O-])c2ccccc2C)c(C(F)(F)F)c1` (stereo not drawn): the IC50 in the experiment on GC3/MTK- was 9100 nM; in the experiment with L1210, 1000 nM; with CCRF-CEM, 3000 nM. Besides, the Ki at Thymidylate synthase [1] is 260 nM and 390 nM; at Thymidylate synthase [2], 290 nM and 920 nM.

As for `C#CCN(Cc1ccc2nc(C)nc(O)c2c1)c1ccc(S(=O)(=O)c2ccccc2)c(F)c1`, the IC50 in the experiment on GC3/MTK- turned out to be 2800 nM; with L1210, 1200 nM; in the experiment on CCRF-CEM, 2000 nM. The Ki at Thymidylate synthase [1] is 20 nM and 46 nM; on Thymidylate synthase [2] it was 43 nM and 74 nM.

In the case of `C#CCN(Cc1ccc2nc(C)nc(O)c2c1)c1ccc(S(=O)(=O)c2ccccc2C)c(C(F)(F)F)c1`, the IC50 is greater than 5000 nM with GC3/MTK-, 1000 nM in the experiment on L1210 and 2000 nM with CCRF-CEM. Moreover, the inhibitory constant (Ki) at Thymidylate synthase [1] is 150 nM and 380 nM; on Thymidylate synthase [2], 160 nM and 390 nM.

For the compound `C#CCN(Cc1ccc2nc(C)nc(O)c2c1)c1ccc([S+]([O-])c2ccccc2C)cc1` (stereo not drawn), the IC50 in the experiment on GC3/MTK- was 4000 nM; with L1210, 1700 nM; in the experiment with CCRF-CEM, 3500 nM. Also, the Ki is 45 nM and 77 nM at Thymidylate synthase [1]; 250 nM and 780 nM on Thymidylate synthase [2].

Take `C#CCN(Cc1ccc2nc(C)nc(O)c2c1)c1ccc(S(=O)(=O)c2ccccc2Cl)cc1`: the values for the IC50 with GC3/MTK-, in the experiment with L1210 and in the experiment with CCRF-CEM were 1200 nM, 300 nM and 600 nM, respectively. In addition, the Ki at Thymidylate synthase [1] was 21 nM and 25 nM; on Thymidylate synthase [2], 33 nM and 69 nM.

Turning to `C#CCN(Cc1ccc2nc(C)nc(O)c2c1)c1ccc(S(=O)(=O)c2ccccc2C)cc1`, the IC50 with GC3/MTK- was 3400 nM; in the experiment on L1210 it was 600 nM; in the experiment on CCRF-CEM, 2700 nM. The Ki is 26 nM and 58 nM at Thymidylate synthase [1]; 56 nM and 160 nM at Thymidylate synthase [2].

`C#CCN(Cc1ccc2nc(C)nc(O)c2c1)c1ccc([S+]([O-])c2ccccc2)c(Cl)c1` (stereo not drawn): the IC50 in the experiment on GC3/MTK- turned out to be 3800 nM; in the experiment with L1210, 1000 nM; with CCRF-CEM it was 2300 nM. For the same compound, the Ki on Thymidylate synthase [1] is 27 nM and 37 nM; at Thymidylate synthase [2], 54 nM and 130 nM.

`C#CCN(Cc1ccc2nc(C)nc(O)c2c1)c1ccc([S+]([O-])c2ccccc2)c(F)c1` (stereo not drawn): the IC50 in the experiment with GC3/MTK- turned out to be 4200 nM; in the experiment on L1210, 2100 nM; in the experiment on CCRF-CEM, 1400 nM. The Ki on Thymidylate synthase [1] was 50 nM and 120 nM; on Thymidylate synthase [2], 88 nM and 290 nM.

`C#CCN(Cc1ccc2nc(C)nc(O)c2c1)c1ccc([S+]([O-])c2ccccc2)c(C(F)(F)F)c1` (stereo not drawn): the figures for the IC50 in the experiment on GC3/MTK-, with L1210 and with CCRF-CEM were 3300 nM, 1100 nM and 3000 nM, respectively. The Ki was 70 nM and 150 nM at Thymidylate synthase [1]; 110 nM and 160 nM on Thymidylate synthase [2].

Consider `C#CCN(Cc1ccc2nc(C)nc(O)c2c1)c1ccc([S+]([O-])c2ccccc2Cl)cc1` (stereo not drawn), for which the IC50 in the experiment with GC3/MTK- is 4300 nM; in the experiment on L1210 it was 2100 nM; in the experiment with CCRF-CEM, 5800 nM. Moreover, the Ki at Thymidylate synthase [1] is 46 nM and 73 nM; on Thymidylate synthase [2], 190 nM and 760 nM.

For `C#CCN(Cc1ccc2nc(C)nc(O)c2c1)c1ccc(S(=O)(=O)c2ccccc2)c(Cl)c1`, the IC50 with GC3/MTK- was 3000 nM; in the experiment on L1210, 1600 nM; in the experiment on CCRF-CEM, 1500 nM. The Ki on Thymidylate synthase [1] was 24 nM and 55 nM; at Thymidylate synthase [2] it was 33 nM and 43 nM.

As to `C#CCN(Cc1ccc2nc(C)[nH]c(=O)c2c1)c1ccc([S+]([O-])c2ccccc2)cc1` (stereo not drawn), the Ki on Thymidylate synthase [1] was 61 nM and 110 nM; at Thymidylate synthase [2] it was 160 nM and 550 nM.

In turn, `C#CCN(Cc1ccc2nc(C)nc(O)c2c1)c1ccc(S(=O)(=O)c2ccccc2)cc1` displayed an IC50 in the experiment with GC3/MTK- of 1030 nM. This counts as single-digit micromolar.
